Measurements: patent publication US9149513B2, “Method and pharmacological composition for the diagnosis and treatment of male sub-fertility” (PERINESS LTD., priority 2006, dated 2015)

System: intracellular sperm cell DNase
Assay: Inhibition of intracellular sperm cell DNase by citrate
Assay type: cell-based
Conditions: 10 mM citrate, up to 8 hours, activity measured every hour
Method: Sperm cells were subjected to three cycles of freezing and thawing and were then centrifuged for 10 min (27,000 g, 4° C.). […] 0.3 ml of the supernatant was added to 0.6 ml of DNase activity buffer and the mixture was measured in a spectrophotometer at 260 nm against a reference that contained only buffer and medium. Calibration curves were made using a commercial bovine DNase I. Sperm cell internal DNase was measured in Kunitz units. One Kunitz unit is defined as the amount of DNase that produces an increase of 1 O.D. per minute at 260 nm in a 1 cm pathlength at pH 5 at 25° C., in a reaction buffer that contains 5 mM MgSO4x7H2O, 0.1 M NaAcetate pH 5 and 4 mg % Calf thymus DNA. Plasma DNase was measured in Bartoov units. One Bartoov unit (BU) is defined as the amount of enzyme that produces a ΔA260 of 0.001 per min in 1 cm pathlength at pH 7.5 at 25° C., in a reaction buffer that contains 0.1M Tris, 10 mM CaCl2, 10 mM MnCl2 and 0.05 mg/ml calf thymus DNA.
In order to examine whether the DNase inhibitor citrate can inhibit intracellular sperm cell DNase, sperm cells were incubated with or without 10 mM citrate for up to 8 hours. The intracellular DNase activity was measured every hour and the sum of the DNase activity was calculated.

O=C(O)CC(O)(CC(=O)O)C(=O)O [citrate]
sum of intracellular DNase activity, % of control sperm cells: 43%
